Experimental data from US20230295182A1, “SPIRO DERIVATIVES OF ALPHA-D-GALACTOPYRANOSIDES” (Idorsia Pharmaceuticals Ltd, priority 2020, published 2023).

Assays:
human Gal-3 (hGal-3) = human Gal-3 (hGal-3) (Homo sapiens (Human), UniProt P17931); experiment: Competitive binding assay: biotinylated hGal-3 to microplate-adsorbed asialofetuin (ASF); conditions: Activity on hGal-3; binding to ASF-coated plates, 3 hours at 4° C.; mean values
Method in brief: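 Biotinylated hGal-3 (300-1000 ng/mL) binding to plate-adsorbed asialofetuin, with DMSO-diluted compound added, incubated 3 h at 4 °C. After washing, bound protein detected with streptavidin-peroxidase (80 ng/mL, 1 h, 4 °C) and ABTS substrate, read spectrophotometrically. IC50 given as mean of several measurements.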

human Gal-1 (hGal-1) = human Gal-1 (hGal-1) (Homo sapiens, UniProt P09382); experiment: Competitive binding assay: biotinylated hGal-1 to microplate-adsorbed asialofetuin (ASF); conditions: Activities on hGal-1; binding to ASF-coated plates, 3 hours at 4° C.; mean values; read-out: Gal-1 IC50
Chain of human Gal-1 (hGal-1) (P09382 2-135 limits assumed): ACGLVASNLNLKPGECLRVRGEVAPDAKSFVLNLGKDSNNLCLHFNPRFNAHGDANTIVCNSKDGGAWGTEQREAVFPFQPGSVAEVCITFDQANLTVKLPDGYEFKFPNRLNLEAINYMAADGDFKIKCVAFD
Method in brief: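 Plate-adsorbed asialofetuin is incubated 3 h at 4 °C with biotinylated hGal-1, optionally its all-serine-substituted cysteine variant, plus compound dilutions. ABTS color after 1 h streptavidin-peroxidase (80 ng/mL) at 4 °C reports binding. Reported IC50 is a mean across repeat runs.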

Chain of human Gal-3 (hGal-3) (P17931 whole entry): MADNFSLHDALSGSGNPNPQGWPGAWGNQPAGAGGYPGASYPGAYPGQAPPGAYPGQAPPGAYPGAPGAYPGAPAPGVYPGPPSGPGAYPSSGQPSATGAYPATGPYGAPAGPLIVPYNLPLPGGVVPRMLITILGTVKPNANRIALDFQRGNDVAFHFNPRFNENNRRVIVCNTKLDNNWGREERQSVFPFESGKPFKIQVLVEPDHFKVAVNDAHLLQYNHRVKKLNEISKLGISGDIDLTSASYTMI

SMILES | IC50 (human Gal-3 (hGal-3)) [nM] | IC50 (human Gal-1 (hGal-1)) [nM]
CO[C@@H]1[C@@H](n2cc(-c3cc(F)c(F)c(F)c3)nn2)[C@@H](O)[C@@H](CO)O[C@@H]1CC1=NO[C@]2(CC[C@H](NC(=O)OC(C)(C)C)CC2)C1 [Example 1.15, tert-butyl ((5r,8R)-3-(((2R,3R,4S,5R,6R)-5-hydroxy-6-(hydroxymethyl)-3-methoxy-4-(4-(3,4,5-trifluorophenyl)-1H-1,2,3-triazol-1-yl)tetrahydro-2H-pyran-2-yl)methyl)-1-oxa-2-azaspiro[4.5]dec-2-en-8-yl)carbamate] | 35 | 1100
CO[C@@H]1[C@@H](n2cc(-c3ccc(Cl)c(F)c3F)nn2)[C@@H](O)[C@@H](CO)O[C@@H]1CC1=NO[C@]2(CC[C@H](C(C)(C)O)CC2)C1 [Example 1.64, (2R,3R,4S,5R,6R)-4-(4-(4-chloro-2,3-difluorophenyl)-1H-1,2,3-triazol-1-yl)-2-(hydroxymethyl)-6-(((5r,8R)-8-(2-hydroxypropan-2-yl)-1-oxa-2-azaspiro[4.5]dec-2-en-3-yl)methyl)-5-methoxytetrahydro-2H-pyran-3-ol] | 490 | 2400
CO[C@@H]1[C@@H](n2cc(-c3cc(F)c(F)c(F)c3)nn2)[C@@H](O)[C@@H](CO)O[C@@H]1CC1=NOC2(CCC(NC(=O)OC(C)(C)C)CC2)C1 (stereo partly drawn) [Example 1.11, tert-butyl (3-(((2R,3R,4S,5R,6R)-5-hydroxy-6-(hydroxymethyl)-3-methoxy-4-(4-(3,4,5-trifluorophenyl)-1H-1,2,3-triazol-1-yl)tetrahydro-2H-pyran-2-yl)methyl)-1-oxa-2-azaspiro[4.5]dec-2-en-8-yl)carbamate] | 69 | 1500
CO[C@@H]1[C@@H](n2cc(-c3ccc(C)c(F)c3F)nn2)[C@@H](O)[C@@H](CO)O[C@@H]1CC1=NO[C@]2(CC[C@H](NCC(F)F)CC2)C1 [Example 1.74, (2R,3R,4S,5R,6R)-4-(4-(2,3-difluoro-4-methylphenyl)-1H-1,2,3-triazol-1-yl)-6-(((5r,8R)-8-((2,2-difluoroethyl)amino)-1-oxa-2-azaspiro[4.5]dec-2-en-3-yl)methyl)-2-(hydroxymethyl)-5-methoxytetrahydro-2H-pyran-3-ol] | 120 | 2400
CO[C@@H]1[C@@H](n2cc(-c3ccc(Cl)c(F)c3F)nn2)[C@@H](O)[C@@H](CO)O[C@@H]1CC1=NOC2(C1)C[C@@H](C(=O)O)N(C(=O)OC(C)(C)C)C2 (mixture of isomers) [Example 1.78, (5RS,8S)-7-(tert-butoxycarbonyl)-3-(((2R,3R,4S,5R,6R)-4-(4-(4-chloro-2,3-difluorophenyl)-1H-1,2,3-triazol-1-yl)-5-hydroxy-6-(hydroxymethyl)-3-methoxytetrahydro-2H-pyran-2-yl)methyl)-1-oxa-2,7-diazaspiro[4.4]non-2-ene-8-carboxylic acid] | 270 | 12000
Cc1ccc(-c2cn([C@H]3[C@@H](O)[C@@H](CO)O[C@H](CC4=NOC5(CCOCC5)C4)[C@@H]3O)nn2)c(F)c1F [Example 1.02, (2R,3R,4R,5R,6R)-2-((1,8-dioxa-2-azaspiro[4.5]dec-2-en-3-yl)methyl)-4-(4-(2,3-difluoro-4-methylphenyl)-1H-1,2,3-triazol-1-yl)-6-(hydroxymethyl)tetrahydro-2H-pyran-3,5-diol] | 84 | 5200
CO[C@@H]1[C@@H](n2cc(-c3ccc(C)c(F)c3F)nn2)[C@@H](O)[C@@H](CO)O[C@@H]1CC1=NOC2(C1)CC1CCC2C1 (stereo partly drawn) [Example 1.81, (2R,3R,4S,5R,6R)-6-((4′H-spiro[bicyclo[2.2.1]heptane-2,5′-isoxazol]-3′-yl)methyl)-4-(4-(2,3-difluoro-4-methylphenyl)-1H-1,2,3-triazol-1-yl)-2-(hydroxymethyl)-5-methoxytetrahydro-2H-pyran-3-ol] | 60 | 2370
CO[C@@H]1[C@@H](n2cc(-c3cc(F)c(F)c(F)c3)nn2)[C@@H](O)[C@@H](CO)O[C@@H]1CC1=NOC2(CCNCC2)C1 [Example 1.07, (2R,3R,4S,5R,6R)-6-((1-oxa-2,8-diazaspiro[4.5]dec-2-en-3-yl)methyl)-2-(hydroxymethyl)-5-methoxy-4-(4-(3,4,5-trifluorophenyl)-1H-1,2,3-triazol-1-yl)tetrahydro-2H-pyran-3-ol] | 320 | 5700
CO[C@@H]1[C@@H](n2cc(-c3ccc(C)c(F)c3F)nn2)[C@@H](O)[C@@H](CO)O[C@@H]1CC1=NO[C@]2(CC[C@@H](NC(=O)OC(C)(C)C)CC2)C1 [Example 1.44, tert-butyl ((5s,8S)-3-(((2R,3R,4S,5R,6R)-4-(4-(2,3-difluoro-4-methylphenyl)-1H-1,2,3-triazol-1-yl)-5-hydroxy-6-(hydroxymethyl)-3-methoxytetrahydro-2H-pyran-2-yl)methyl)-1-oxa-2-azaspiro[4.5]dec-2-en-8-yl)carbamate] | 100 | 4900
CO[C@@H]1[C@@H](n2cc(-c3ccc(Cl)c(F)c3F)nn2)[C@@H](O)[C@@H](CO)O[C@@H]1CC1=NOC2(C1)CN(C(=O)OC(C)(C)C)C2 [Example 1.80, tert-butyl 7-(((2R,3R,4S,5R,6R)-4-(4-(4-chloro-2,3-difluorophenyl)-1H-1,2,3-triazol-1-yl)-5-hydroxy-6-(hydroxymethyl)-3-methoxytetrahydro-2H-pyran-2-yl)methyl)-5-oxa-2,6-diazaspiro[3.4]oct-6-ene-2-carboxylate] | 310 | 7200
CO[C@@H]1[C@@H](n2cc(-c3cc(F)c(F)c(F)c3)nn2)[C@@H](O)[C@@H](CO)O[C@@H]1CC1=NO[C@]2(CC[C@@H](C)CC2)C1 [Example 1.34, (2R,3R,4S,5R,6R)-2-(hydroxymethyl)-5-methoxy-6-(((5s,8S)-8-methyl-1-oxa-2-azaspiro[4.5]dec-2-en-3-yl)methyl)-4-(4-(3,4,5-trifluorophenyl)-1H-1,2,3-triazol-1-yl)tetrahydro-2H-pyran-3-ol] | 520 | 2500

The remaining lines, values ahead:

IC50 (human Gal-3 (hGal-3)) [nM] | IC50 (human Gal-1 (hGal-1)) [nM] | SMILES
20 | 320 | CCOC(=O)N[C@H]1CC[C@]2(CC1)CC(C[C@H]1O[C@H](CO)[C@H](O)[C@H](n3cc(-c4ccc(F)c(F)c4F)nn3)[C@H]1OC)=NO2 [Example 2.10, ethyl ((5r,8R)-3-(((2R,3R,4S,5R,6R)-5-hydroxy-6-(hydroxymethyl)-3-methoxy-4-(4-(2,3,4-trifluorophenyl)-1H-1,2,3-triazol-1-yl)tetrahydro-2H-pyran-2-yl)methyl)-1-oxa-2-azaspiro[4.5]dec-2-en-8-yl)carbamate]
590 | 1600 | CO[C@@H]1[C@@H](n2cc(-c3cc(F)c(F)c(F)c3)nn2)[C@@H](O)[C@@H](CO)O[C@@H]1CC1=NO[C@]2(CC[C@@H](NC3CC3)CC2)C1 [Example 2.23, (2R,3R,4S,5R,6R)-6-(((5s,8S)-8-(cyclopropylamino)-1-oxa-2-azaspiro[4.5]dec-2-en-3-yl)methyl)-2-(hydroxymethyl)-5-methoxy-4-(4-(3,4,5-trifluorophenyl)-1H-1,2,3-triazol-1-yl)tetrahydro-2H-pyran-3-ol]
280 | 2800 | CO[C@@H]1[C@@H](n2cc(-c3cc(F)c(F)c(F)c3)nn2)[C@@H](O)[C@@H](CO)O[C@@H]1CC1=NOC2(CCN(C(C)=O)CC2)C1 [Example 2.30, 1-(3-(((2R,3R,4S,5R,6R)-5-hydroxy-6-(hydroxymethyl)-3-methoxy-4-(4-(3,4,5-trifluorophenyl)-1H-1,2,3-triazol-1-yl)tetrahydro-2H-pyran-2-yl)methyl)-1-oxa-2,8-diazaspiro[4.5]dec-2-en-8-yl)ethan-1-one]
74 | 400 | CO[C@@H]1[C@@H](n2cc(-c3ccc(Cl)c(F)c3F)nn2)[C@@H](O)[C@@H](CO)O[C@@H]1CN1CC2(CCCCC2)CNC1=O [Example 4.02, 2-(((2R,3R,4S,5R,6R)-4-(4-(4-chloro-2,3-difluorophenyl)-1H-1,2,3-triazol-1-yl)-5-hydroxy-6-(hydroxymethyl)-3-methoxytetrahydro-2H-pyran-2-yl)methyl)-2,4-diazaspiro[5.5]undecan-3-one]
250 | 2200 | CO[C@@H]1[C@@H](n2cc(-c3cc(F)c(F)c(F)c3)nn2)[C@@H](O)[C@@H](CO)O[C@@H]1CC1=NOC2(CCC(O)CC2)C1 (stereo partly drawn) [Example 2.01, 3-(((2R,3R,4S,5R,6R)-5-hydroxy-6-(hydroxymethyl)-3-methoxy-4-(4-(3,4,5-trifluorophenyl)-1H-1,2,3-triazol-1-yl)tetrahydro-2H-pyran-2-yl)methyl)-1-oxa-2-azaspiro[4.5]dec-2-en-8-ol]
140 | 1300 | CO[C@@H]1[C@@H](n2cc(-c3cc(F)c(F)c(F)c3)nn2)[C@@H](O)[C@@H](CO)O[C@@H]1CC1=NO[C@]2(CC[C@H](NC3CC3)CC2)C1 [Example 2.22, (2R,3R,4S,5R,6R)-6-(((5r,8R)-8-(cyclopropylamino)-1-oxa-2-azaspiro[4.5]dec-2-en-3-yl)methyl)-2-(hydroxymethyl)-5-methoxy-4-(4-(3,4,5-trifluorophenyl)-1H-1,2,3-triazol-1-yl)tetrahydro-2H-pyran-3-ol]
550 | 7000 | CO[C@@H]1[C@@H](n2cc(-c3cc(F)c(F)c(F)c3)nn2)[C@@H](O)[C@@H](CO)O[C@@H]1CC1=NO[C@]2(CC[C@@H](NC(C)C)CC2)C1 [Example 2.13, (2R,3R,4S,5R,6R)-2-(hydroxymethyl)-6-(((5s,8S)-8-(isopropylamino)-1-oxa-2-azaspiro[4.5]dec-2-en-3-yl)methyl)-5-methoxy-4-(4-(3,4,5-trifluorophenyl)-1H-1,2,3-triazol-1-yl)tetrahydro-2H-pyran-3-ol]
